Publication PMC12867150, “A fungi-derived cyclic peptide enhances Th9-mediated antitumor immunity by targeting ZAP70 and SREBP1” (The Journal of Clinical Investigation, 2025)
Several values for one entry are separate records, joined by “and”; a condition that tells them apart may be missing. Equal entries are not always repeated.

Test system: Th0 cells
Test: Th0 polarization, IFN-γ by flow cytometry (Figure 1E)
Format: cell-based, mouse
Protocol: Naive CD4^+ T cells were isolated from the spleens of C57BL/6J or CD45.1^+ OT-II mice using the MojoSort Mouse CD4 Naive T Cell Isolation Kit (BioLegend, catalog 480040), following the manufacturer’s protocol. Purified cells were cultured in RPMI-1640 medium supplemented with 10% FBS, 1% penicillin-streptomycin, and 0.1% β-mercaptoethanol (Gibco, catalog 21985023).
T cell polarization was initiated under plate-bound anti-CD3 (2 μg/mL, clone 17A2, BioXCell, catalog BE0002) and soluble anti-CD28 (1 μg/mL, clone 37.51, BioXCell, catalog BE0015-1) stimulation, with the addition of cytokines and neutralizing antibodies specific to each subset. For Th9 cells, these included IL-4 (10 ng/mL, Peprotech, catalog 400-04), TGF-β (1 ng/mL, EPOTO Biotech, catalog HF-2021), anti–IL-12 (5 μg/mL, clone C17.8, BioXCell, catalog BE0051), and anti–IFN-γ (10 μg/mL, clone XMG1.2, BioXCell, catalog BE0055); for Th1 cells, these included IL-12 (10 ng/mL, GenScript, catalog Z03211-50) and anti–IL-4 (5 μg/mL, clone 11B11, BioXCell, catalog BE0045); for Th2 cells, these included IL-4 (50 ng/mL), anti–IFN-γ (20 μg /mL), anti–IL-12 (5 μg/mL), Th17 cells: IL-6 (20 ng/mL, EPOTO Biotech, catalog MF-1006), TGF-β (1 ng/mL), IL-1β (10 ng/mL, Peprotech, catalog AF-211-11B), anti–IFN-γ (10 μg/mL), anti–IL-12 (5 μg/mL), and anti–IL-4 (5 μg/mL); and for Tregs, these included TGF-β (3 ng/mL). […]

## anteiso-C15 Leu7 surfactin [EpA]
EpA 10 μM, individual replicates, n = 4
  IFN-γ expression under Th0 polarization: 31 and 32.2 and 35 and 26.8
Result in words
  effect on Th0 polarization: did not affect
